Experimental data taken from US7750043B2, “Modified retinoid compounds and their uses” (Wisconsin Alumni Research Foundation, priority 2003, dated 2010).
Entries after “also recorded” stand apart in the source; their conditions may differ.

Assays:
vitamin A-deficient rats = test: Growth of vitamin A-deficient rats given the compounds orally in Wesson oil; type: in vivo, rat; conditions: for growth of vitamin A-deficient rats, comparison between atRA and its esters / growth of vitamin A-deficient rats compared to vehicle control: 83 pmole/day, FIG. 4; for growth of vitamin A-deficient rats, comparison between atRA and its esters / growth of vitamin A-deficient rats compared to vehicle control / growth (weight change) of vitamin A-deficient rats compared to atRA / growth response of vitamin A-deficient rats compared to atRA: 5 days; for in vivo activity relative to atRA (growth support): oral, vitamin A-deficient rats, overall estimate; for growth (weight change) of vitamin A-deficient rats compared to atRA: 83 pmoles/day oral in Wesson oil, FIG. 1; for growth response of vitamin A-deficient rats compared to atRA: 166 pmoles/day (50 μg/day atRA or 59.5 μg/day t-butyl-RA), FIG. 2
Excerpt: The first test was to determine if the esterified compounds when given orally could restore normal growth of vitamin A-deficient rats. For this study, Sprague-Dawley, weanling rats were obtained from Harlan (Indianapolis, Ind.). They were fed the purified vitamin A-deficient diet previously described (Suda et al., 1970, J. Nutr. 100:1049-152) supplemented with vitamins D, E and K (White et al., 1998, Proc. Natl. Acad. Sci. USA 95:13459-13464). When the animals stopped growing and began to lose weight, they were administered the indicated doses per day dissolved in Wesson oil. Controls were given the Wesson oil alone (vehicle group). The weight change over the 5-day study period was analyzed by ANOVA, followed by a matrix of pairwise comparison probabilities using four post-hoc tests when the overall P value was less than 0.05. The post-hoc comparison tests included: Turkey HSD multiple comparisons, Sheffe test, Fisher's least-significant-difference test and the Bonferroni adjustment test.
Weanling male rats were obtained from the Harlan Company and were housed individually in hanging wire cages and fed the vitamin A-deficient diet described previously (Suda et al., 1970). At approximately 70 days of age, the animals began to show a leveling off of growth and began to show weight loss. At this time, they were used for the following studies: They were given either 0.1 ml of Wesson oil (vehicle) or the indicated dose of atRA dissolved in the vehicle or one of the derivatives at the indicated dose dissolved in the vehicle. Body weights were recorded daily and plotted as cumulative weight gain or loss over the study period as indicated on the graphs. A daily dose of 83 pmoles (25 μg/day) of atRA is near the minimum amount needed to produce normal growth in […] rats as compared to the vehicle controls that continue to lose weight (FIG. 1). […] When the dose was increased to 50 μg/day of atRA or 59.5 μg/day of the t-butyl derivative, as expected, the growth response was identical.

pregnant rats (embryos) = conditions: female, Sprague Dawley, rat, in vivo, 18.5 embryonic day
Excerpt: Teratogenic activity of atRA is a serious drawback in its therapeutic potential. […] The results of this experiment illustrate that atRA is, indeed, teratogenic and that the t-butyl derivative shares this liability, but only when given at a dose of 10 times higher than that of atRA. Thus, there is a larger window of safety when using the t-butyl-RA derivative when compared to atRA.
In this experiment, 19 female rats were obtained from Sprague Dawley and were individually housed in cages and given purina chow as well as water ad libitum. After approximately two weeks of acclimation to the animal facility, the females were placed with normal males on the same diet, between 6:00 and 9:00 pm. The following morning, the females were checked for vaginal plugs indicating fertilization. Vaginal smears were then checked for sperm and when shown to be positive, the pregnant rat was placed in the study. At embryonic day 12.3 between 9:00 and 10:00 in the morning, the rats received the following treatments given as a bolus dose in oil orally. Four groups of rats received the vehicle; four received 0.1 mmole/kg (30 mg/kg) atRA in the oil vehicle; another group received an equal molar amount (35.7 mg/kg) of t-butyl-RA; and a final group received a ten-fold higher dose (357 mg/kg) of t-butyl-RA. The embryos were removed by cesarean section on day 18.5 and weighed as well as checked for cleft palette. […]

normal male rats = test: Acute toxicity of atRA versus t-butyl-RA in normal male rats; type: in vivo, rat; conditions: for body weight change / apparent toxicity: second study, 1 mmole/kg/day for 5 days, FIG. 6
Description: Two independent toxicity studies were carried out with the t-butyl-RA derivative. […] However, the difference in testes weights between the atRA and t-butyl-RA groups was not statistically significant due to rather large biological variability.
We next examined the acute toxicity of the t-butyl derivative as compared to the atRA derivative in two independent trails. In these experiments, normal male rats weighing approximately 250-300 grams were used. They were individually housed in cages and given Purina lab chow as well as water ad libitum. […] This is an extremely large dose, and represents at least 3,600 times the amount of the t-butyl derivative needed to support a physiological growth response in vitamin A-deficient rats. […] Another indication of toxicity is testes weight as illustrated in FIG. 7.

With `CC1=C(/C=C/C(C)=C/C=C/C(C)=C/C(=O)O)C(C)(C)CCC1` [atRA, all-trans-retinoic acid, reference compound] the “growth of vitamin A-deficient rats, comparison between atRA and its esters” value (“growth … comparison between atRA and its esters” for short) (vitamin A-deficient rats) was “superior to that of the cholesterol ester-fed group”.

For `CC1=C(/C=C/C(C)=C/C=C/C(C)=C/C(=O)O[C@H]2CC[C@@]3(C)C(=CCC4C3CC[C@@]3(C)C4CC[C@@H]3[C@H](C)CCCC(C)C)C2)C(C)(C)CCC1` (stereo partly drawn) [cholesterol ester, all-trans-retinoic acid cholesterol ester], the “growth of vitamin A-deficient rats compared to vehicle control” value (vitamin A-deficient rats) was “significantly enhanced growth compared to vehicle control animals; also recorded: clearly much improved over the vehicle control”, the “growth … comparison between atRA and its esters” value (vitamin A-deficient rats) was “less effective” and the “in vivo activity relative to atRA (growth support)” value (from here on “in vivo activity relative to atRA”) (vitamin A-deficient rats) was “less effective; also recorded: one-third”.

`CC1=C(/C=C/C(C)=C/C=C/C(C)=C/C(=O)OC(C)(C)C(C)(C)O)C(C)(C)CCC1` [pinacol ester, all-trans-retinoic acid pinacol ester] was tested, and the “growth of vitamin A-deficient rats compared to vehicle control” value (vitamin A-deficient rats) was “significantly enhanced growth compared to vehicle control animals”, the “growth … comparison between atRA and its esters” value (vitamin A-deficient rats) was “nearly equivalent to atRA” and the “in vivo activity relative to atRA” value (vitamin A-deficient rats) was “nearly as active as atRA”.

`CC1=C(/C=C/C(C)=C/C=C/C(C)=C/C(=O)OC(C)(C)C)C(C)(C)CCC1` [t-butyl-RA, all-trans-retinoic acid tert-butyl ester] was tested, and the “growth (weight change) of vitamin A-deficient rats compared to atRA” value (vitamin A-deficient rats) was “did not differ significantly from that of the group fed an equal molar amount of atRA”, the “growth (weight change) of vitamin A-deficient rats compared to atRA” value (vitamin A-deficient rats; listed as t-butyl derivative) was “did not differ from that of atRA” and the “growth response of vitamin A-deficient rats compared to atRA” value (vitamin A-deficient rats) was “equivalent”. For the same compound, the “growth response of vitamin A-deficient rats compared to atRA” value (vitamin A-deficient rats; listed as t-butyl derivative) was “identical”, the “in vivo activity relative to atRA” value (vitamin A-deficient rats) was “equal to atRA in potency and efficacy” and the “in vivo activity relative to atRA” value (vitamin A-deficient rats; listed as t-butyl derivative) was “as active as atRA”. The “in vivo activity relative to atRA” value (vitamin A-deficient rats; listed as t-butyrate ester) was “as active in vivo when given orally as is atRA”, the “dose relative to atRA required to produce equivalent teratogenic effects” value (pregnant rats (embryos)) was 10 and the “times less teratogenic than atRA” value (pregnant rats (embryos)) was “approximately 10 times”. For the same compound, the “non-toxic dose as multiple of the amount needed to support a physiological growth response” value (normal male rats; 1 mmole/kg/day (357 mg/kg/day) versus growth dose in vitamin A-deficient rats) was “at least 3,600 times”, the testes weight (normal male rats; 1 mmole/kg/day, FIG. 7, listed as t-butyl derivative) was “no such indication; also recorded: similar” and the body weight change (normal male rats; first study, 1 mmole/kg/day (300 mg/kg/day atRA, 357 mg/kg/day t-butyl-RA), 7 days, FIG. 5) was “continued growth; also recorded: did not cause a weight loss”. The “other signs of toxicity” value (normal male rats; first study, 1 mmole/kg/day, 7 days, FIG. 5) was “no other externally obvious toxicity”, the “body weight change / apparent toxicity” value (normal male rats) was “no apparent toxicity” and the “body weight change / apparent toxicity” value (normal male rats; listed as t-butyl derivative) was “normal growth”.
